{"source": "patent US12594284B2", "about": "“Combination of micronutrients to stimulate the endogenous production of hydrogen sulfide (H2S)” (priority 2020, dated 2026)", "key": {"[1]": {"tested_on": "reductive stress", "assay": "Reductive stress induced by vitamin C in healthy male subjects (plasma NADH, erythrocyte GSH)", "assay_type": "in vivo, human", "conditions": "vitamin C 2 gr per day alone, 1 week", "description": "Vitamin C caused a subclinical reductive stress as reported by a 40% increase of plasma NADH and 31% and 63% increase of erythrocyte GSH and GSH to GSSG ratio, respectively. […] Thus, the aforementioned composition prevented the reductive stress induced by a powerful reducing agent."}, "[2]": {"tested_on": "endogenous production of H2S (CBS, CSE, 3MST)", "assay": "Inventor's observations on administration of the micronutrients to humans (H2S production markers, redox, homocysteine, insulin resistance)", "assay_type": "in vivo, human", "conditions": "for triggering of the H2S system by form of vitamin B6: subjects possibly with genetic weakness of vitamin B6 activation and recycling"}, "[3]": {"tested_on": "endogenous production of H2S (CBS, CSE, 3MST)", "conditions": "subjects with chronically low-vitamin B6 status; cited from earlier work"}, "[4]": {"tested_on": "blood pressure of pre-hypertensive patients", "conditions": "cited from earlier work"}, "[5]": {"conditions": "taurine 1.6 gr per day, 12 weeks"}, "[6]": {"conditions": "taurine added to L-cystine supplementation"}, "[7]": {"conditions": "vitamin B6 added to taurine and L-cystine supplementation"}}, "data": [{"molecule": "O=C1O[C@H]([C@@H](O)CO)C(O)=C1O", "note": "[Vitamin C, vitamin C]", "values": [{"measurement": "increase of GSH to GSSG ratio", "setting": "[1]", "result": 63, "unit": "%"}, {"measurement": "increase of erythrocyte GSH", "setting": "[1]", "result": 31, "unit": "%"}, {"measurement": "increase of plasma NADH", "setting": "[1]", "result": 40, "unit": "%"}]}, {"molecule": "N[C@@H](CS)C(=O)O", "note": "[cysteine]", "values": [{"measurement": "H2S levels", "setting": "[2]; isolated cysteine administration", "result": "fail to increase H2S levels"}]}, {"molecule": "Cc1ncc(COP(=O)(O)O)c(C=O)c1O", "note": "[pyridoxal-5-phosphate]", "values": [{"measurement": "triggering of the H2S system by form of vitamin B6", "setting": "[2]", "result": "responded normally"}]}, {"molecule": "Cc1ncc(CO)c(CO)c1O", "note": "[pyridoxine, reference compound]", "values": [{"measurement": "triggering of the H2S system by form of vitamin B6", "setting": "[2]", "result": "failed to trigger the system in some subjects"}, {"measurement": "plasma concentrations of lanthionine and homolanthionine", "setting": "[3]", "result": "did not respond"}]}, {"molecule": "NCCS(=O)(=O)O", "note": "[taurine]", "values": [{"measurement": "expression of CBS and CSE", "setting": "[4]; human, in vivo", "result": "induced the expression of CBS and CSE"}, {"measurement": "circulating H2S", "setting": "[4]; [5]", "result": "increase of circulating H2S"}, {"measurement": "reduction of diastolic blood pressure", "setting": "[4]; [5]", "result": 3.4, "unit": "mm Hg"}, {"measurement": "reduction of systolic blood pressure", "setting": "[4]; [5]", "result": 4.6, "unit": "mm Hg"}, {"measurement": "daily amounts that do not produce any further added effect", "setting": "[2]; [6]", "result": "> 2000", "unit": "mg"}, {"measurement": "daily dose at which increased H2S production compared to L-cystine alone is already measured", "setting": "[2]; [6]", "result": 100, "unit": "mg per day"}]}, {"molecule": "Cc1ncc(CO)c(CO)c1O.Cl", "note": "[vitamin B6]", "values": [{"measurement": "CSE activity", "setting": "[2]; supra-physiological amounts of vitamin B6", "result": "effective in activating CSE activity"}, {"measurement": "daily amounts that do not produce any further added effect", "setting": "[2]; [7]", "result": "> 100", "unit": "mg"}, {"measurement": "daily dose at which increased H2S production compared to L-cystine and taurine is already measured", "setting": "[2]; [7]", "result": 2, "unit": "mg per day"}]}]}
